Drawing on ChEMBL document CHEMBL1129699, “Synthesis of furo[2,3-c]pyran--D-thymidine” (Bioorg Med Chem Lett, 1996), this text covers IC50 and CC50 for two compounds.

Assay [1] has as its system CEM-SS. As to the kind of experiment: Compound was tested in vitro for its anti-HIV activity in CEM-SS cells. The format is functional, cell-based. Particulars: Homo sapiens.
The test system of assay [2] is CEM-SS. As to the kind of experiment: Compound was tested in vitro for its cytotoxicity in CEM-SS cells. The format is functional. The note with it: Homo sapiens.

Usually IC50 stands for the concentration that gives 50% inhibition. Broadly, the CC50 is the concentration giving 50% cytotoxicity. Turning to `Cc1cn(C2CC3CC(C)OCC3(CO)O2)c(=O)[nH]c1=O` (centres undefined), the IC50 in assay [1] was over 100 µM. Moreover, the CC50 in assay [2] was over 100 µM.
Consider `Cc1cn(C2CC3CC(CI)OCC3(CO)O2)c(=O)[nH]c1=O` (centres undefined), for which the concentration for half-maximal inhibition (IC50) in assay [1] is over 100 µM. In assay [2], this compound yielded a CC50 of over 100 µM.
